Experimental data reported in article PMC8198043, “Tetracyclic Thioxanthene Derivatives: Studies on Fluorescence and Antitumor Activity” (Molecules, 2021).

Columns and labels:
[1] = tested on: myeloid leukemia K562 cell line (doxorubicin-sensitive); design: method as in PMID 26771595; details: previous results by the group; cited from earlier work
[2] = tested on: myeloid leukemia K562 cell line (doxorubicin-resistant); design: method as in PMID 26771595; details: previous results by the group; cited from earlier work
[3] = Photophysical studies (absorption and emission in DMSO); type: physicochemical; details: for λmax: absorption; for λem: emission; for ΦF: fluorescence quantum yield, by comparison with fluorescein (φf = 90%); for log ε: molar absorption coefficient
Protocol: The absorption spectra in dimethyl sulfoxide solutions were obtained on a Shimadzu UV-2501 PC spectrophotometer (1 cm path length quartz cell) and the emission spectra were recorded on a JASCO spectrofluorometer. Molar absorption coefficients were determined using 4 measurements in the concentration range 10^−3–10^−6 mol.L^−1. Fluorescence quantum yields were determined by comparison with fluorescein in 0.1 M NaOH water solution as a fluorescence standard (φf = 90%).

[4] = tested on: A375-C5, MCF-7 and NCI-H460; assay: SRB cell growth inhibition, span over the three tumor cell lines; type: cell-based; details: Homo sapiens; A375-C5, MCF-7 and NCI-H460 taken together; read-out: GI50, range over the tested cell lines
Protocol: (§1) To evaluate the biological activity of compounds 11–14, three human tumor cell lines (European Collection of Cell Culture, Salisbury, Wiltshire, UK) were used: A375-C5 (melanoma), MCF-7 (breast adenocarcinoma) and NCI-H460 (non-small cell lung cancer). Cells were grown in RPMI-1640 culture medium (Biochrom, Berlin, Germany) supplemented with 5% heat-inactivated fetal bovine serum (FBS, Biochrom) and maintained in a humidified incubator at 37 °C with 5% CO2 (Hera Cell, Heraeus).
The antitumor activity of compounds was accessed through the determination of the GI50 by the sulforhodamine B assay (SRB, Sigma-Aldrich). Tumor cells were seeded in 96-well plates (0.05 × 10^6 cells/well) in complete culture medium and incubated at 37 °C for 24 h, allowing cell attachment. Cells were then incubated with two-fold serial dilutions of the test compounds, with concentrations ranging from 0 to 75 μM. Dimethyl sulfoxide-treated cells (DMSO), up to 0.25% concentration, were included as compounds solvent control. Forty-eight hours later, cells were fixed with 50% (m/v) trichloroacetic acid (Merck Millipore, Darmstadt, Germany), washed with distilled water and stained with SRB for 30 min at room temperature. […]

[5] = tested on: NCI-H460 (non-small cell lung cancer); assay: SRB cell growth inhibition assay, NCI-H460; type: cell-based, human; details: for GI50: Homo sapiens, NCI-H460, SRB assay, continuous exposure for 48 h, mean ± SD, at least three independent experiments, read-out: Antitumor Activity (GI50) NCI-H460; for Selectivity Index NCI-H460: ratio of GI50 in non-tumor HPAEpiC cells over GI50 in NCI-H460
Protocol: as §1
(§2) The antitumor activity of compounds was accessed through the determination of the GI50 by the sulforhodamine B assay (SRB, Sigma-Aldrich). Tumor cells were seeded in 96-well plates (0.05 × 10^6 cells/well) in complete culture medium and incubated at 37 °C for 24 h, allowing cell attachment. Cells were then incubated with two-fold serial dilutions of the test compounds, with concentrations ranging from 0 to 75 μM. Dimethyl sulfoxide-treated cells (DMSO), up to 0.25% concentration, were included as compounds solvent control. Forty-eight hours later, cells were fixed with 50% (m/v) trichloroacetic acid (Merck Millipore, Darmstadt, Germany), washed with distilled water and stained with SRB for 30 min at room temperature. The SRB-stained cells were washed 5 times with 1% (v/v) acetic acid (Merck Millipore) and afterwards dried at RT; SRB complexes were solubilized by adding 10 mM Tris-Base buffer (Sigma-Aldrich) for 30 min. Absorbance was measured at 515 nm in a microplate reader (BioTek Synergy 2, BioTek Instruments Inc., Winooski, VT, USA).The concentration that caused cell growth inhibition of 50% (GI50) was determined based on a dose–response curve obtained for each cell line with each test compound.

[6] = tested on: MCF-7 (breast adenocarcinoma); assay: SRB cell growth inhibition assay, MCF-7; type: cell-based, human; details: for GI50: Homo sapiens, MCF7, SRB assay, continuous exposure for 48 h, mean ± SD, at least three independent experiments, read-out: Antitumor Activity (GI50) MCF-7; for Selectivity Index MCF-7: ratio of GI50 in non-tumor HPAEpiC cells over GI50 in MCF-7
Protocol: as §1, §2

A375-C5 (melanoma) = assay: SRB cell growth inhibition assay, A375-C5; type: cell-based, human; details: for GI50: Homo sapiens, A375-C5, SRB assay, continuous exposure for 48 h, mean ± SD, at least three independent experiments, read-out: Antitumor Activity (GI50) A375-C5; for Selectivity Index A375-C5: ratio of GI50 in non-tumor HPAEpiC cells over GI50 in A375-C5
Protocol: as §1, §2

[7] = tested on: Human Pulmonary Alveolar Epithelial Cells (HPAEpiC); assay: Cell toxicity in non-tumor cells (GI50); type: cell-based; details: mean ± SD of three independent experiments
Protocol: as §2
The non-tumor Human Pulmonary Alveolar Epithelial Cells (HPAEpiC) were used to assess the degree of selectivity of the compounds, as the ratio of GI50 in non-tumor cells over GI50 in cancer cells. A selectivity index value less than 2.0 indicates the general toxicity of the compound [32].

Stokes’ Shift [3] [nm] | λmax [3] [nm] | λem [3] [nm] | ΦF [3] [%] | log ε [3] | GI50 [4] [µM] | GI50 [5] [µM] | GI50 [6] [µM] | GI50 (A375-C5 (melanoma)) [µM] | SMILES | GI50 [1] [µM] | GI50 [2] [µM] | Selectivity Index NCI-H460 [5] | Selectivity Index MCF-7 [6] | Selectivity Index A375-C5 (A375-C5 (melanoma)) | GI50 [7] [µM]
– | – | – | – | – | – | – | – | – | CCCOc1ccc(NCCN(CC)CC)c2c(=O)c3ccccc3sc12 [Compound 4] | 1.9 | 1.9 | – | – | – | –
92 | 456 | 548 | 29.0 | 3.67 | 5 to 7 | 5.66 ± 0.89 | 6.39 ± 0.49 | 6.48 ± 0.88 | CCCOc1ccc2nc(N)nc3c2c1Sc1ccccc1-3 [Compound 11, 6-Propoxythiochromeno[4,3,2-de]quinazolin-2-amine] | – | – | 4.73 | 4.19 | 4.13 | 26.8 ± 1.2
89 | 394 | 483 | 50.7 | 3.72 | – | 31.2 ± 1.53 | 33.8 ± 1.61 | 38.8 ± 5.93 | CCCOc1ccc2ncnc3c2c1Sc1ccccc1-3 [Compound 12, 6-Propoxythiochromeno[4,3,2-de]quinazoline] | – | – | 1.26 | 1.16 | 1.01 | 39.28 ± 0.25
91 | 457 | 548 | 31.3 | 3.72 | – | 17 ± 3.12 | 18.9 ± 1.42 | 22.9 ± 3.75 | CCCOc1ccc2nc(NCc3ccccc3Cl)nc3c2c1Sc1ccccc1-3 [Compound 13, N-(2-Chlorobenzyl)-6-propoxythiochromeno[4,3,2-de]quinazolin-2-amine] | – | – | 7.54 | 6.79 | 5.59 | 128 ± 1.56
80 | 480 | 560 | <0.1 | 4.00 | 8 to 11 | 10.6 ± 0.31 | 9.04 ± 0.89 | 8.02 ± 3.59 | CCCOc1ccc2c3c(n/c(=N/c4ccccc4C)n2-c2ccccc2C)-c2ccccc2Sc13 [Compound 14, (E)-6-Propoxy-N,3-di-o-tolylthiochromeno[4,3,2-de]quinazolin-2(3H)-imine] | – | – | – | – | – | > 150
– | – | – | – | – | – | 0.024 ± 0.006 | 0.018 ± 0.003 | 0.016 ± 0.005 | COc1cccc2c1C(=O)c1c(O)c3c(c(O)c1C2=O)C[C@@](O)(C(=O)CO)C[C@@H]3O[C@H]1C[C@H](N)[C@H](O)[C@H](C)O1 [Doxorubicin, reference compound] | – | – | 2.25 | 3.00 | 3.38 | 0.054 ± 0.005
